Laboratory results reported in PubChem BioAssay (NCI).
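Protocol summary: plate cells (96-well), add compound at 5 concentrations, incubate 48 h, interpolate endpoints linearly. Abbreviation: GI50, concentration required for 50% inhibition of growth. At the TGI there is no net growth.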

Columns and labels:
Assay in all cases: growth of human tumour cells (NCI), 48 h
ACHN renal = system: ACHN renal
HCC-2998 colon = system: HCC-2998 colon
HCT-15 colon = system: HCT-15 colon
K-562 leukemia = system: K-562 leukemia
M14 melanoma = system: M14 melanoma
NCI-H23 lung = system: NCI-H23 lung
NCI-H460 lung = system: NCI-H460 lung
OVCAR-5 ovarian = system: OVCAR-5 ovarian
SF-295 CNS = system: SF-295 CNS
SNB-75 CNS = system: SNB-75 CNS

## O=C1c2ccccc2-c2c1c1c(O)cccc1n2CCCc1ccccc1
ACHN renal
  GI50: 14.1 µM
  TGI: 66.9 µM
HCC-2998 colon
  GI50: 2.35 µM
  TGI: 6.01 µM
HCT-15 colon
  GI50: 4.11 µM
  TGI: > 100 µM
K-562 leukemia
  GI50: 22.7 µM
  TGI: > 100 µM
M14 melanoma
  GI50: > 100 µM
  TGI: > 100 µM
NCI-H23 lung
  GI50: 18.6 µM
  TGI: > 100 µM
NCI-H460 lung
  GI50: 29.7 µM
  TGI: > 100 µM
OVCAR-5 ovarian
  GI50: 64 µM
  TGI: > 100 µM
SF-295 CNS
  GI50: 7.33 µM
  TGI: > 100 µM
SNB-75 CNS
  GI50: 51.7 µM
  TGI: > 100 µM

## O=S1c2ccccc2N=C(c2ccc3ccccc3c2)CC1c1ccccc1F (stereo not given)
ACHN renal
  TGI: > 100 µM
HCC-2998 colon
  TGI: > 100 µM
HCT-15 colon
  TGI: > 100 µM
K-562 leukemia
  TGI: > 100 µM
M14 melanoma
  TGI: > 100 µM
NCI-H23 lung
  TGI: > 100 µM
NCI-H460 lung
  TGI: > 100 µM
OVCAR-5 ovarian
  TGI: > 100 µM
SF-295 CNS
  TGI: > 100 µM
SNB-75 CNS
  TGI: 80.8 µM

## COc1ccc(/C=c2\sc3nnc(CCC(=O)Nc4cccc(C(F)(F)F)c4)n3c2=O)cc1
ACHN renal
  TGI: > 100 µM
HCC-2998 colon
  TGI: > 100 µM
HCT-15 colon
  TGI: > 100 µM
K-562 leukemia
  TGI: > 100 µM
M14 melanoma
  TGI: > 100 µM
NCI-H23 lung
  TGI: > 100 µM
NCI-H460 lung
  TGI: > 100 µM
OVCAR-5 ovarian
  TGI: > 100 µM
SF-295 CNS
  TGI: > 100 µM
SNB-75 CNS
  TGI: > 100 µM

## S=C(Nc1ccc(Cl)cc1)SC1CCCCC1
ACHN renal
  TGI: 36.6 µM
HCC-2998 colon
  TGI: 39.3 µM
HCT-15 colon
  TGI: 69.4 µM
K-562 leukemia
  TGI: > 100 µM
M14 melanoma
  TGI: 42.7 µM
NCI-H23 lung
  TGI: 45.4 µM
NCI-H460 lung
  TGI: 86.7 µM
OVCAR-5 ovarian
  TGI: 62 µM
SF-295 CNS
  TGI: 70.5 µM
SNB-75 CNS
  TGI: 74.4 µM

## COc1ccc(C2=NNC(c3cc(Cc4ccc(O)c(C5CC(c6ccc(OC)cc6)=NN5)c4)ccc3O)C2)cc1 (stereo not given)
ACHN renal
  GI50: 5.56 µM
  TGI: > 100 µM
HCC-2998 colon
  GI50: 46 µM
  TGI: > 100 µM
HCT-15 colon
  GI50: 3.64 µM
  TGI: > 100 µM
K-562 leukemia
  GI50: 7.74 µM
  TGI: > 100 µM
M14 melanoma
  GI50: 10.4 µM
  TGI: 38.3 µM
NCI-H23 lung
  GI50: 5.3 µM
  TGI: > 100 µM
NCI-H460 lung
  GI50: 4.88 µM
  TGI: > 100 µM
OVCAR-5 ovarian
  GI50: 17.1 µM
  TGI: 88 µM
SF-295 CNS
  GI50: 21.2 µM
  TGI: > 100 µM
SNB-75 CNS
  GI50: 4.98 µM
  TGI: > 100 µM

## COc1cc(-c2ccccc2)c(OC)cc1CCl
ACHN renal
  TGI: > 100 µM
HCC-2998 colon
  TGI: > 100 µM
HCT-15 colon
  TGI: > 100 µM
K-562 leukemia
  TGI: > 100 µM
M14 melanoma
  TGI: > 100 µM
NCI-H23 lung
  TGI: > 100 µM
NCI-H460 lung
  TGI: > 100 µM
OVCAR-5 ovarian
  TGI: > 100 µM
SF-295 CNS
  TGI: > 100 µM
SNB-75 CNS
  TGI: > 100 µM

## COc1ccccc1N(C(C)=O)C1=C(Cl)C(=O)c2ccccc2C1=O
ACHN renal
  GI50: 1.43 µM
  TGI: 2.73 µM
HCC-2998 colon
  GI50: 2.23 µM
  TGI: 8.61 µM
HCT-15 colon
  GI50: 1.04 µM
  TGI: 2.61 µM
K-562 leukemia
  GI50: 2.23 µM
  TGI: 7.67 µM
M14 melanoma
  GI50: 1.88 µM
  TGI: 5.91 µM
NCI-H23 lung
  GI50: 1.65 µM
  TGI: 6 µM
NCI-H460 lung
  GI50: 3.17 µM
  TGI: 12.2 µM
OVCAR-5 ovarian
  GI50: 2.93 µM
  TGI: 11.5 µM
SF-295 CNS
  GI50: 2.38 µM
  TGI: 6.5 µM
SNB-75 CNS
  GI50: 1.72 µM
  TGI: 7.6 µM
